One may read the half-life as the time in which the quantity being followed falls by half.

Here are results for one molecule from patent publication US7723320B2, “Use of estrogen compounds to increase libido in women” (Pantarhei Bioscience B.V., priority 2001, dated 2010).

The conditions of data set [1]: tritium labeled, intravenous, two adult women; cited from earlier work.
The nature of data set [2]: Single dose po/sc bioavailability and elimination half-life study. Format: in vivo. The note with it: rat, plasma, female Sprague Dawley rats; for bioavailability: po. As to the method:
To evaluate the oral (po) and subcutaneous (sc) bioavailability of estetrol (E4) and to determine the elimination half-life, single dose studies were performed in female Sprague Dawley rats followed by frequent blood sampling over a 24 hours interval.
Female Sprague Dawley rats were equipped with a permanent silatic heart catheter, as described by Kuipers et al. (1985, Gastroenterology, 88, 403-411). Rats were allowed to recover from surgery for 5 days and were than administered 0.05, 0.5, or 5 mg/kg E4 in 0.5 ml arachis oil. For sc administration, E4 was injected in the neck area using a 1 ml syringe and 20 g needle. For po administration of E4, rats were lightly anaesthesized with halothene/N2O/O2 and E4 was directly applied intragastrically using a plastic stomach intubator. Blood samples were subsequently collected via the heart catheter in heparinized tubes at 0.5, 1, 2, 4, 8 and 24 hours. Erytlrocytes were removed by centrifugation at 5000×g for 10 minutes at 4° C. and blood plasma was stored at −20° C. After thawing the plasma samples, liquid-liquid extraction (hexane/diethylether) was employed to prepare the E4-containing plasma samples for HPLC analysis (Perkin Elmer 200) and tandem mass spectrometry using a PE Sciex 3000 tandem mass spectrometer and APCI interface. With each sample batch, a calibration curve with 6 calibrators was recorded. The calibration curve was calculated using linear regression (correlation coefficient>0.98), which permitted quantitation of plasma concentrations. For each rat plasma, sampled at different time intervals, data were collected.
Plasma E4 concentration data were analysed with “WinNonLin, edition 3.1” and involved pharmacokinetic parameters for Cmax, half-life and AUC0-24.

Another data set has as its system uterus. The note with it: continuous administration from a subcutaneous depot; cited from earlier work.

Read-outs that look alike come from different tables or passages of the source.

Regarding `C[C@]12CC[C@@H]3c4ccc(O)cc4CC[C@H]3[C@@H]1[C@@H](O)[C@@H](O)[C@@H]2O` [E4, 1,3,5(10)-estratrien-3,15α,16α,17β-tetrol], in data set [1], the excretion result is “rapidly and completely excreted in urine as the glucosiduronate”; the metabolism result is “virtually no metabolism except for conjugation”. The molecule also showed a half-life in data set [2] (other: subcutaneous and oral, sc and po single dose) of 2 to 3 h. Moreover, in data set [2] (single dose 5.0 mg/kg, read-out: oral bioavailability relative to sc administered E4), the bioavailability lay in the range of 30 to 60%. In data set [2] (single dose 0.05, 0.5 mg/kg, read-out: oral bioavailability relative to sc administration), the bioavailability lay in the range of 80 to 100%. The uterotrophic activity entry in the data set with uterus is given as “very weak uterotrophic activity”.
